Experimental data as given in the CheMixHub viscosity set.

Experiment: xn = mol fraction of the nth substance listed

c1ccncc1 + Cc1ccc(C)cc1
viscosity [mPa·s], 101 kPa
Details | x2 = 0.0992 | x2 = 0.1993 | x2 = 0.2987 | x2 = 0.3993 | x2 = 0.4949 | x2 = 0.6001 | x2 = 0.6997 | x2 = 0.7994 | x2 = 0.8981
293.15 K | 0.8699 | 0.8193 | 0.7862 | 0.7311 | 0.6964 | 0.6582 | 0.6345 | 0.6152 | 0.5919
303.15 K | 0.7603 | 0.7165 | 0.6902 | 0.6422 | 0.6139 | 0.5868 | 0.5656 | 0.5475 | 0.5316
313.15 K | 0.6704 | 0.6302 | 0.6051 | 0.565 | 0.5399 | 0.5172 | 0.4986 | 0.4819 | 0.4686
323.15 K | 0.5894 | 0.5534 | 0.5296 | 0.496 | 0.4742 | 0.4548 | 0.4385 | 0.4238 | 0.4123

c1ccncc1 + Cc1cccc(C)c1
viscosity [mPa·s], 101 kPa
Details | x2 = 0.1993 | x2 = 0.2997 | x2 = 0.3994 | x2 = 0.524 | x2 = 0.5987 | x2 = 0.7003 | x2 = 0.7968 | x2 = 0.8972
293.15 K | 0.8031 | 0.7468 | 0.7151 | 0.6612 | 0.6415 | 0.6114 | 0.59 | 0.5649
303.15 K | 0.7062 | 0.6592 | 0.6241 | 0.5859 | 0.5687 | 0.547 | 0.5279 | 0.5097
313.15 K | 0.6189 | 0.5815 | 0.5504 | 0.5173 | 0.5023 | 0.4843 | 0.4668 | 0.4544
323.15 K | 0.5442 | 0.5118 | 0.4851 | 0.4563 | 0.4433 | 0.428 | 0.4122 | 0.4019

c1ccncc1 + Cc1ccccc1C
viscosity [mPa·s], 101 kPa
Details | x2 = 0.1002 | x2 = 0.2001 | x2 = 0.2999 | x2 = 0.3993 | x2 = 0.4968 | x2 = 0.6002 | x2 = 0.6992 | x2 = 0.7985 | x2 = 0.8945
293.15 K | 0.9083 | 0.8811 | 0.8575 | 0.8434 | 0.8268 | 0.806 | 0.7925 | 0.7798 | 0.7769
303.15 K | 0.7933 | 0.7696 | 0.7498 | 0.7375 | 0.721 | 0.7069 | 0.6976 | 0.6881 | 0.6804
313.15 K | 0.7 | 0.6779 | 0.6586 | 0.6456 | 0.63 | 0.6195 | 0.6097 | 0.6015 | 0.595
323.15 K | 0.6145 | 0.5949 | 0.5776 | 0.5654 | 0.5525 | 0.5433 | 0.5347 | 0.528 | 0.5228

CCCCCCC(C)O (stereo unspecified) + Clc1ccccc1
viscosity [mPa·s], 101 kPa
Details | 298.15 K | 303.15 K
x2 = 0.0637 | 5.573 | 4.507
x2 = 0.1236 | 4.736 | 3.906
x2 = 0.1894 | 3.906 | 3.291
x2 = 0.2474 | 3.319 | 2.818
x2 = 0.3131 | 2.772 | 2.369
x2 = 0.374 | 2.378 | 1.981
x2 = 0.4525 | 1.947 | 1.641
x2 = 0.5014 | 1.737 | 1.467
x2 = 0.5867 | 1.452 | 1.238
x2 = 0.6813 | 1.203 | 1.08
x2 = 0.7429 | 1.085 | 1
x2 = 0.8098 | 0.968 | 0.929
x2 = 0.8776 | 0.872 | 0.867
x2 = 0.9446 | 0.803 | 0.786

C[N+](C)(CCO)CCO.[Cl-] + NC(N)=O
100 kPa, x1 = 0.5
Details | viscosity [mPa·s]
293.15 K | 3865
298.15 K | 2440
303.15 K | 1596
308.15 K | 1065
313.15 K | 724
318.15 K | 514
323.15 K | 368

CC(=O)[O-].C[N+](C)(C)CCO + O
Details | viscosity [mPa·s]
298 K, 101.33 kPa, x2 = 0.8 | 30.5

CN(C)CCN(C)C + O
viscosity [mPa·s], 100 kPa
Details | 293.15 K | 303.15 K | 313.15 K | 323.15 K
x1 = 0.001 | 1.041 | 0.83 | 0.679 | 0.564
x1 = 0.01 | 1.375 | 1.143 | 0.941 | 0.732
x1 = 0.025 | 2.406 | 1.734 | 1.303 | 1.012
x1 = 0.05 | 5.033 | 3.269 | 2.032 | 1.409
x1 = 0.075 | 8.363 | 4.972 | 2.688 | 1.769
x1 = 0.1 | 11.53 | 6.033 | 3.292 | 2.114
x1 = 0.2 | 12.82 | 7.744 | 4.885 | 3.185
x1 = 0.3 | 7.906 | 5.945 | 4.23 | 3.011
x1 = 0.399 | 3.497 | 2.56 | 1.9 | 1.45
x1 = 0.5 | 1.887 | 1.456 | 1.117 | 0.904
x1 = 0.601 | 1.344 | 1.064 | 0.853 | 0.69
x1 = 0.7 | 1.066 | 0.881 | 0.724 | 0.585
x1 = 0.8 | 0.859 | 0.733 | 0.625 | 0.52
x1 = 0.9 | 0.715 | 0.63 | 0.554 | 0.473

C[N+](C)(C)CCO.NCCS(=O)(=O)[O-] + O
viscosity [mPa·s], 100 kPa
Details | x1 = 3.04e-05 | x1 = 5.1e-05 | x1 = 7.04e-05 | x1 = 9.62e-05 | x1 = 0.0001978 | x1 = 0.0004282 | x1 = 0.0006357 | x1 = 0.0009005 | x1 = 0.001375 | x1 = 0.001632
293.15 K | 1.014 | 1.017 | 1.019 | 1.022 | 1.028 | 1.036 | 1.041 | 1.046 | 1.052 | 1.054
298.15 K | 0.904 | 0.907 | 0.91 | 0.913 | 0.922 | 0.932 | 0.939 | 0.946 | 0.954 | 0.958
303.15 K | 0.811 | 0.814 | 0.817 | 0.82 | 0.828 | 0.839 | 0.846 | 0.853 | 0.861 | 0.863
308.15 K | 0.737 | 0.742 | 0.745 | 0.749 | 0.76 | 0.771 | 0.776 | 0.781 | 0.786 | 0.789
313.15 K | 0.675 | 0.68 | 0.684 | 0.688 | 0.699 | 0.709 | 0.715 | 0.72 | 0.723 | 0.724

Cc1cc[n+](CCCO)cc1.[Cl-] + O
viscosity [mPa·s], 100 kPa
Details | x1 = 0.001799 | x1 = 0.00269 | x1 = 0.003585 | x1 = 0.005375 | x1 = 0.007144 | x1 = 0.008904
293.15 K | 1.067 | 1.092 | 1.116 | 1.161 | 1.204 | 1.244
298.15 K | 0.942 | 0.963 | 0.984 | 1.022 | 1.059 | 1.094
303.15 K | 0.84 | 0.859 | 0.876 | 0.911 | 0.943 | 0.974
308.15 K | 0.756 | 0.772 | 0.787 | 0.818 | 0.847 | 0.875
313.15 K | 0.685 | 0.699 | 0.713 | 0.741 | 0.767 | 0.792

Cl.NNC(N)=O + O
viscosity [mPa·s], 101 kPa
Details | 293.15 K | 298.15 K | 303.15 K | 308.15 K | 313.15 K | 318.15 K
x1 = 0.000452 | 1.008 | 0.8953 | 0.8016 | 0.7228 | – | 0.6
x1 = 0.000904 | 1.014 | 0.9003 | 0.8058 | 0.7263 | 0.6589 | 0.6026
x1 = 0.00135 | – | 0.9052 | 0.81 | 0.7299 | 0.6619 | 0.6051
x1 = 0.001798 | – | 0.9101 | 0.8142 | – | – | 0.6077
x1 = 0.002249 | – | 0.915 | 0.8183 | 0.737 | 0.6679 | 0.6102
x1 = 0.00269 | 1.037 | 0.9199 | 0.8224 | 0.7404 | 0.6708 | 0.6127
x1 = 0.003585 | 1.049 | 0.9296 | 0.8306 | 0.7475 | 0.6767 | 0.6176
x1 = 0.004482 | 1.06 | 0.9395 | 0.8389 | 0.7543 | 0.6826 | 0.6226
x1 = 0.005372 | 1.072 | 0.9492 | 0.8472 | 0.7612 | 0.6884 | 0.6275
x1 = 0.006264 | 1.083 | 0.959 | 0.8554 | 0.7682 | 0.6944 | 0.6324
x1 = 0.007149 | 1.095 | 0.9687 | 0.8637 | 0.775 | 0.7001 | 0.6373

c1c[nH]cn1 + O
viscosity [mPa·s], 100 kPa
Details | x1 = 0.0286 | x1 = 0.0621 | x1 = 0.102 | x1 = 0.15 | x1 = 0.209
298.15 K | 1.058 | 1.242 | 1.47 | 1.737 | 2.14
303.15 K | 0.944 | 1.103 | 1.301 | 1.541 | 1.881
313.15 K | 0.771 | 0.892 | 1.043 | 1.261 | 1.543
323.15 K | 0.647 | 0.742 | 0.862 | 1.034 | 1.254
